PubChem BioAssay AID2060904 (Molecular Pharmacology Branch, DTP, NCI, 2025)

Test system: 349418-098-R-PDC complex spheroid viability
Assay: Anticancer human tumor 349418-098-R-PDC patient-derived lung adenocarcinoma cell line growth inhibition [RAS]
Conditions: for IC50: curve of first compound; for viability, T/C: stronger effect = lower value
Summary of the method: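 Multi-cell-type spheroids: tumor cells plus HUVEC endothelial cells and mesenchymal stem cells. RAS-pathway inhibitors were combined with targeted agents, each dosed in half-log steps down from clinical Cmax, or from 10 microM when Cmax was unknown.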
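Further: spheroids exposed to compound for seven days before viability readout.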

C=CC(=O)N1CCN(c2nc(OCC3CCCN3C)nc3c(F)c(-c4nc(N)cc(C)c4C(F)(F)F)c(Cl)cc23)C(C)C1 (configuration not stated) + CCn1c(-c2cc(N3CCN(C)CC3)cnc2C(C)OC)c2c3cc(ccc31)-c1csc(n1)CC(NC(=O)C1CC1C)C(=O)N1CCCC(N1)C(=O)OCC(C)(C)C2
IC50 (second compound 0.000949 µM): > 1 µM | IC50 (second compound 0.003 µM): > 1 µM | IC50 (second compound 0.00949 µM): > 1 µM | IC50 (second compound 0.03 µM): > 1 µM | IC50 (second compound 0.0949 µM): > 1 µM | IC50 (second compound 0.3 µM): > 1 µM | viability, T/C (second compound 0.000949 µM, first compound 0.00316 µM): 117% | viability, T/C (second compound 0.000949 µM, first compound 0.01 µM): 82.4% | viability, T/C (second compound 0.000949 µM, first compound 0.0316 µM): 109% | viability, T/C (second compound 0.000949 µM, first compound 0.1 µM): 101% | viability, T/C (second compound 0.000949 µM, first compound 0.316 µM): 96.8% | viability, T/C (second compound 0.000949 µM, first compound 1 µM): 101% | viability, T/C (second compound 0.003 µM, first compound 0.00316 µM): 90.3% | viability, T/C (second compound 0.003 µM, first compound 0.01 µM): 105% | viability, T/C (second compound 0.003 µM, first compound 0.0316 µM): 96.1% | viability, T/C (second compound 0.003 µM, first compound 0.1 µM): 86.7% | viability, T/C (second compound 0.003 µM, first compound 0.316 µM): 99.9% | viability, T/C (second compound 0.003 µM, first compound 1 µM): 82.2% | viability, T/C (second compound 0.00949 µM, first compound 0.00316 µM): 101% | viability, T/C (second compound 0.00949 µM, first compound 0.01 µM): 97.1% | viability, T/C (second compound 0.00949 µM, first compound 0.0316 µM): 104% | viability, T/C (second compound 0.00949 µM, first compound 0.1 µM): 98.9% | viability, T/C (second compound 0.00949 µM, first compound 0.316 µM): 106% | viability, T/C (second compound 0.00949 µM, first compound 1 µM): 80.7% | viability, T/C (second compound 0.03 µM, first compound 0.00316 µM): 99% | viability, T/C (second compound 0.03 µM, first compound 0.01 µM): 110% | viability, T/C (second compound 0.03 µM, first compound 0.0316 µM): 99.7% | viability, T/C (second compound 0.03 µM, first compound 0.1 µM): 102% | viability, T/C (second compound 0.03 µM, first compound 0.316 µM): 97.4% | viability, T/C (second compound 0.03 µM, first compound 1 µM): 82.3% | viability, T/C (second compound 0.0949 µM, first compound 0.00316 µM): 92.5% | viability, T/C (second compound 0.0949 µM, first compound 0.01 µM): 110% | viability, T/C (second compound 0.0949 µM, first compound 0.0316 µM): 112% | viability, T/C (second compound 0.0949 µM, first compound 0.1 µM): 112% | viability, T/C (second compound 0.0949 µM, first compound 0.316 µM): 113% | viability, T/C (second compound 0.0949 µM, first compound 1 µM): 102% | viability, T/C (second compound 0.3 µM, first compound 0.00316 µM): 110% | viability, T/C (second compound 0.3 µM, first compound 0.01 µM): 94.3% | viability, T/C (second compound 0.3 µM, first compound 0.0316 µM): 105% | viability, T/C (second compound 0.3 µM, first compound 0.1 µM): 109% | viability, T/C (second compound 0.3 µM, first compound 0.316 µM): 99.7% | viability, T/C (second compound 0.3 µM, first compound 1 µM): 90.5%
